System: patients with advanced solid tumors
Assay: Treatment-related adverse events graded by NCI-CTC v3.0
Format: in vivo, human
Experimental: Medical records and laboratory tests were obtained during screening. Physical examination, routine laboratory evaluations, and performance status were assessed at baseline and at specified time points throughout the trial. AEs and concomitant medications were recorded at the end of each cycle. The safety evaluation period extended through 30 days from the last dose of study drug or through recovery to grade 1 or better from all acute toxicities associated with drug administration. Toxicity was evaluated and graded according to the NCI-CTC for Adverse Events, version 3.0.

N#CC1(c2ccc(NC(=O)c3cccnc3NCc3ccncc3)cc2)CCCC1 [apatinib]
7: Hypertension grade 1-2, No. (500 mg cohort) | Hand-Food Syndrome grade 1-2, No. (750 mg cohort) | Neutropenia grade 1-2, No. (750 mg cohort) | Proteinuria grade 1-2, No. (750 mg cohort)
60%: Hypertension grade 1-2, % (750 mg cohort)
4: Hand-Food Syndrome grade 1-2, No. (500 mg cohort) | Hemorrhage grade 1-2, No. (500 mg cohort) | Pain grade 1-2, No. (500 mg cohort) | Proteinuria grade 1-2, No. (500 mg cohort) | Fatigue grade 1-2, No. (750 mg cohort) | Infection grade 1-2, No. (750 mg cohort) | Pain grade 1-2, No. (750 mg cohort) | Vomiting grade 1-2, No. (750 mg cohort) | Fatigue grade 1-2, No. (850 mg cohort) | Hand-Food Syndrome grade 1-2, No. (850 mg cohort)
46.67%: Proteinuria grade 1-2, % (750 mg cohort)
25%: Hyperbilirubinemia grade 3-4, % (250 mg cohort)
50%: Hypertension grade 1-2, % (250 mg cohort)
13.3%: Hand-Food Syndrome grade 3-4, % (750 mg cohort) | Hoarseness grade 1-2, % (750 mg cohort) | Hypertension grade 3-4, % (750 mg cohort) | Mucosal ulcers grade 1-2, % (750 mg cohort) | Mucosal ulcers grade 3-4, % (750 mg cohort) | Pain grade 3-4, % (750 mg cohort)
0: Thrombocytopenia grade 3-4, No. (500 mg cohort) | Vomiting grade 1-2, No. (500 mg cohort)
2: Hypertension grade 1-2, No. (250 mg cohort) | Transaminase Increased grade 1-2, No. (250 mg cohort) | Anorexia grade 1-2, No. (500 mg cohort) | Mucosal ulcers grade 1-2, No. (500 mg cohort) | Neutropenia grade 1-2, No. (500 mg cohort) | Neutropenia grade 3-4, No. (500 mg cohort) | Pain grade 3-4, No. (500 mg cohort) | Thrombocytopenia grade 1-2, No. (500 mg cohort) | Hand-Food Syndrome grade 3-4, No. (750 mg cohort) | Hoarseness grade 1-2, No. (750 mg cohort) | Hypertension grade 3-4, No. (750 mg cohort) | Mucosal ulcers grade 1-2, No. (750 mg cohort) | Mucosal ulcers grade 3-4, No. (750 mg cohort) | Pain grade 3-4, No. (750 mg cohort) | Anemia grade 1-2, No. (850 mg cohort) | Diarrhea grade 1-2, No. (850 mg cohort) | Hand-Food Syndrome grade 3-4, No. (850 mg cohort)
40%: Thrombocytopenia grade 1-2, % (750 mg cohort) | Transaminase Increased grade 1-2, % (750 mg cohort)
9: Hypertension grade 1-2, No. (750 mg cohort)
6: Thrombocytopenia grade 1-2, No. (750 mg cohort) | Transaminase Increased grade 1-2, No. (750 mg cohort)
46.7%: Hand-Food Syndrome grade 1-2, % (750 mg cohort) | Neutropenia grade 1-2, % (750 mg cohort)
18.2%: Anorexia grade 1-2, % (500 mg cohort) | Mucosal ulcers grade 1-2, % (500 mg cohort) | Neutropenia grade 1-2, % (500 mg cohort) | Neutropenia grade 3-4, % (500 mg cohort) | Pain grade 3-4, % (500 mg cohort) | Thrombocytopenia grade 1-2, % (500 mg cohort)
63.6%: Hypertension grade 1-2, % (500 mg cohort)
25.0%: Anemia grade 1-2, % (250 mg cohort) | Infection grade 1-2, % (250 mg cohort) | Proteinuria grade 3-4, % (250 mg cohort) | Thrombocytopenia grade 1-2, % (250 mg cohort)
36.4%: Hand-Food Syndrome grade 1-2, % (500 mg cohort) | Hemorrhage grade 1-2, % (500 mg cohort) | Pain grade 1-2, % (500 mg cohort) | Proteinuria grade 1-2, % (500 mg cohort)
50.0%: Transaminase Increased grade 1-2, % (250 mg cohort)
7.7%: Anemia grade 3-4, % (850 mg cohort) | Anorexia grade 1-2, % (850 mg cohort) | Dyspnea grade 1-2, % (850 mg cohort) | Hemorrhage grade 1-2, % (850 mg cohort) | Hoarseness grade 1-2, % (850 mg cohort)
30.8%: Fatigue grade 1-2, % (850 mg cohort) | Hand-Food Syndrome grade 1-2, % (850 mg cohort)
3: Anemia grade 1-2, No. (750 mg cohort) | Anorexia grade 1-2, No. (750 mg cohort) | Diarrhea grade 1-2, No. (750 mg cohort) | Proteinuria grade 3-4, No. (750 mg cohort)
0%: Thrombocytopenia grade 3-4, % (500 mg cohort) | Vomiting grade 1-2, % (500 mg cohort)
33.3%: Hemorrhage grade 1-2, % (750 mg cohort)
15.4%: Anemia grade 1-2, % (850 mg cohort) | Diarrhea grade 1-2, % (850 mg cohort) | Hand-Food Syndrome grade 3-4, % (850 mg cohort)
9%: Anemia grade 1-2, % (500 mg cohort) | Diarrhea grade 1-2, % (500 mg cohort) | Fatigue grade 1-2, % (500 mg cohort) | Hand-Food Syndrome grade 3-4, % (500 mg cohort) | Hemorrhage grade 3-4, % (500 mg cohort) | Hoarseness grade 1-2, % (500 mg cohort) | Infection grade 1-2, % (500 mg cohort) | Proteinuria grade 3-4, % (500 mg cohort) | Rash grade 1-2, % (500 mg cohort) | Transaminase Increased grade 1-2, % (500 mg cohort) | Transaminase Increased grade 3-4, % (500 mg cohort)
6.7%: Albinism grade 1-2, % (750 mg cohort) | Fatigue grade 3-4, % (750 mg cohort) | Rash grade 1-2, % (750 mg cohort)
1: Anemia grade 1-2, No. (250 mg cohort) | Hyperbilirubinemia grade 3-4, No. (250 mg cohort) | Infection grade 1-2, No. (250 mg cohort) | Proteinuria grade 3-4, No. (250 mg cohort) | Thrombocytopenia grade 1-2, No. (250 mg cohort) | Anemia grade 1-2, No. (500 mg cohort) | Diarrhea grade 1-2, No. (500 mg cohort) | Fatigue grade 1-2, No. (500 mg cohort) | Hand-Food Syndrome grade 3-4, No. (500 mg cohort) | Hemorrhage grade 3-4, No. (500 mg cohort) | Hoarseness grade 1-2, No. (500 mg cohort) | Infection grade 1-2, No. (500 mg cohort) | Proteinuria grade 3-4, No. (500 mg cohort) | Rash grade 1-2, No. (500 mg cohort) | Transaminase Increased grade 1-2, No. (500 mg cohort) | Transaminase Increased grade 3-4, No. (500 mg cohort) | Albinism grade 1-2, No. (750 mg cohort) | Fatigue grade 3-4, No. (750 mg cohort) | Rash grade 1-2, No. (750 mg cohort) | Anemia grade 3-4, No. (850 mg cohort) | Anorexia grade 1-2, No. (850 mg cohort) | Dyspnea grade 1-2, No. (850 mg cohort) | Hemorrhage grade 1-2, No. (850 mg cohort)
5: Hemorrhage grade 1-2, No. (750 mg cohort)
20%: Anemia grade 1-2, % (750 mg cohort) | Anorexia grade 1-2, % (750 mg cohort) | Diarrhea grade 1-2, % (750 mg cohort) | Proteinuria grade 3-4, % (750 mg cohort)
26.7%: Fatigue grade 1-2, % (750 mg cohort) | Infection grade 1-2, % (750 mg cohort) | Pain grade 1-2, % (750 mg cohort) | Vomiting grade 1-2, % (750 mg cohort)

From PMC2984425, “Safety and pharmacokinetics of novel selective vascular endothelial growth factor receptor-2 inhibitor YN968D1 in patients with advanced malignancies” (BMC Cancer, 2010)
